Measured values: article PMC6522510 (Nature Communications, 2019)
Like-named read-outs stand apart in the source and are kept apart here.

Assays:
[1] = tested on: CHRF288-11-luciferase/YFP+ xenograft; test: In vivo efficacy, survival; set-up: species or system NSG mice
MOLM-13 [2] = assay type: cell-based; conditions: Homo sapiens, 72 h, Cell Titer Glo
THP-1 = assay type: cell-based; conditions: Homo sapiens, 72 h, Cell Titer Glo
MV4-11 [3] = test: Secondary dose-response HTS, Cell Titer Glo; assay type: cell-based, human; conditions: Homo sapiens, MV4-11
ML2 = test: Secondary dose-response HTS, Cell Titer Glo; assay type: cell-based, human; conditions: Homo sapiens, ML-2
U937 [4] = assay type: cell-based; conditions: Homo sapiens, U-937; 72 h, Cell Titer Glo
MOLM-13 [5] = test: Secondary dose-response HTS, Cell Titer Glo; assay type: cell-based, human; conditions: Homo sapiens, MOLM-13
[6] = tested on: AMKL primary AML blast samples; test: Ex vivo drug treatment of primary AML blasts on mesenchymal stromal cells; assay type: cell-based; conditions: Homo sapiens; primary blasts on MSC, 96 h
[7] = tested on: ML-2-luciferase/YFP+ xenograft; test: In vivo efficacy, survival; set-up: species or system NSG mice; conditions: ML-2 xenograft, i.p.
CMK = test: Secondary dose-response HTS, Cell Titer Glo; assay type: cell-based, human; conditions: Homo sapiens, CMK
MV4-11 [8] = assay type: cell-based; conditions: Homo sapiens, 72 h, Cell Titer Glo
CMS [9] = test: Secondary dose-response HTS, Cell Titer Glo; assay type: cell-based, human; conditions: Homo sapiens, HTS
CHRF288-11 [10] = assay type: cell-based; conditions: Homo sapiens; 72 h, Cell Titer Glo; read-out: IC50 CHRF288-11
ML-2 = assay type: cell-based; conditions: Homo sapiens, 72 h, Cell Titer Glo
[11] = In vivo tolerability / maximum tolerated dose; set-up: species or system mice; conditions: multiple doses, intermittent every 3 or 4-day schedule
Description: Next, we sought to compare the in vivo efficacy of gemcitabine and cabazitaxel to the standard of care, cytarabine. Due to limitations with tolerability, we have previously treated our AML xenograft models with low-dose cytarabine[13],[31]. […] Tolerability studies of gemcitabine at the same dose and schedule was not tolerated. […] Similarly, we performed tolerability of cabazitaxel using multiple doses on an intermittent every 3 or 4-day schedule; the only tolerable dose was 5 mg/kg.
All animal studies were performed in accordance with Animal Care and Use Programs under protocols approved by the Institutional Animal Care and Use Committee at OSU. We have complied with the relevant ethical considerations for animal research overseen by this committee. Mice were housed in a barrier facility. Non-tumor bearing Ly5.2 C57Bl/6 (BoyJ) mice were treated with 100, 120, or 140 mg kg^−1 gemcitabine on an intermittent schedule every 3 days for 3 weeks; 3 or 6 mg kg^−1 doses were used to evaluate daily for 5 days schedule. All doses were administered by intraperitoneal injection; tolerability was assessed by daily weights and observation of changes in body condition.
Supplementary Figure 12. Establish maximum tolerated dose of gemcitabine. Non-tumor bearing female BoyJ mice were treated on an intermittent schedule every 3 days for 3 weeks with 100, 120, or 140 m gkg-1 gemcitabine (Gem ) or treated on a daily schedule once a day for 5 days with 3 or 6 m gkg-1 Gem. Daily weight of treated mice; data reported as a percent weight loss from day 0. Arrow indicate treatment days.

CMS [12] = assay type: cell-based; conditions: Homo sapiens, 72 h, read-out: IC50 CMS
U937 [13] = test: Secondary dose-response HTS, Cell Titer Glo; assay type: cell-based, human; conditions: Homo sapiens, U-937
[14] = tested on: Mll-PTD/wt:Flt3ITD/ITD primary transplants; test: In vivo efficacy, survival; set-up: species or system mice
[15] = tested on: AMKL patient-derived xenograft; test: In vivo efficacy, survival; set-up: species or system NSG-SGM3 mice; conditions: AMKL PDX, i.p.
M07e [16] = test: Secondary dose-response HTS, Cell Titer Glo; assay type: cell-based, human; conditions: Homo sapiens, M-07e; secondary HTS, 72 h, average of triplicate; read-out: EC50 M07e
CHRF288-11 [17] = test: Secondary dose-response HTS, Cell Titer Glo; assay type: cell-based, human; conditions: Homo sapiens
[18] = tested on: Mll-PTD/wt:Flt3ITD/ITD secondary transplants; test: In vivo efficacy, survival; set-up: species or system mice; conditions: 100 mg kg−1 daily x 5 days, i.p.
M07e [19] = test: cells; set-up: species or system AML cell lines (8); Secondary HTS, 10-point dose-response in triplicate, Cell Titer Glo viability, four-parameter fit EC50; conditions: M-07e, 72 h, read-out: M07e
[20] = set-up: method as in Wang et al., Biol Blood Marrow Transplant 2014 and others; conditions: ref Wang et al., Biol Blood Marrow Transplant 2014 and others, cited from earlier work
AML cell lines [21] = conditions: human, 5 min
[22] = tested on: CBFA2T3-GLIS2/JAK2V617F-induced AMKL model; test: In vivo efficacy, survival; set-up: species or system mice; conditions: CBFA2T3-GLIS2/JAK2V617F-Luc+ quaternary transplants, i.p.
AML cell lines [23] = test: Intracellular drug and phosphorylated metabolites by HPLC with liquid scintillation counting; conditions: 2 h, 1 µM
[24] = tested on: Mll PTD/wt:Flt3 ITD/ITD double knock-in primary transplant blasts (bone marrow, spleen); test: Accumulation in primary murine blasts; assay type: cell-based, mouse; conditions: blasts from bone marrow or spleen
Description: Cells were washed twice with ice-cold PBS; cell pellets were solubilized in 400 µL 1 N NaOH and agitated (300 rpm) at room temperature for 2 h. Then samples were neutralized with […] 1 M HCl; a 25 µL aliquot of lysate was used to estimate protein concentration using a Pierce BCA protein assay kit (Thermo Scientific). Total radioactivity was measured by a Tri-Carb 4810TR liquid scintillation counter (Perkin-Elmer) after mixing the sample with 4 mL of Emulsifier Safe (Perkin Elmer); the results were normalized to total protein content as measured by a Pierce BCA protein assay kit. Three independent experiments were performed in triplicate.
Bone marrow and splenocytes were isolated from mice transplanted with dKI AML and CG-V617 AMKL. Following red blood cells lysis, dKI AML leukemic blasts from vehicle treated mice were evaluated for accumulation of cytarabine and gemcitabine using the uptake assay described above.
Supplementary Figure 5. Accumulation of cytarabine and gemcitabine .
unlabeled and [3H]-cytarabine (Ara- C) or gemcitabine ( Gem ). Intracellular Ara- C, Gem ,
scintillation counting and normalized to protein levels. Representative chromatogram for
as disintegrations per minute (DPM) over complete run time. (c) Percentage of total
independent experiments (N=9). (d) Accumulation was determined in cell lysate of bone
double knock-in primary transplant recipient. […]

[25] = secondary high-throughput screen, read-out: average effective concentration, MV4-11
[26] = secondary high-throughput screen, read-out: average effective concentration, ML-2

CO[C@H]1C(=O)[C@]2(C)[C@@H](OC)C[C@H]3OC[C@@]3(OC(C)=O)[C@H]2[C@H](OC(=O)c2ccccc2)[C@]2(O)C[C@H](OC(=O)[C@H](O)[C@@H](NC(=O)OC(C)(C)C)c3ccccc3)C(C)=C1C2(C)C [Cabazitaxel, cabazitaxel]
Median survival ([1]; CHRF288-11 xenograft, 5 mg kg−1 q4d, i.p.): 44 days | Median survival ([1]; CHRF288-11 xenograft, 5 mg kg−1 q4d, x 2 cycles, i.p.): 40 days | IC50 (MOLM-13 [2]): 1.2 nM | IC50 (THP-1): 4.4 nM | EC50 (MV4-11 [3]; secondary HTS, 72 h, average of triplicate, read-out: EC50 MV4-11): 0.3 nM | EC50 (MV4-11 [3]; [25]): 0.34 nM | EC50 (ML2; secondary HTS, 72 h, average of triplicate, read-out: EC50 ML2): 1 nM | EC50 (ML2; [26]): 0.5 nM | IC50 (U937 [4]): 0.8 nM | EC50 (MOLM-13 [5]; secondary HTS, 72 h, average of triplicate, read-out: EC50 MOLM-13): 1 nM | IC50 [6]: > 50000 nM | Median survival ([7]; 5 mg kg−1 q4d): 82 days | EC50 (CMK; 72 h, read-out: EC50 CMK): 1 nM | IC50 (MV4-11 [8]): 1.5 nM | EC50 (CMS [9]; 72 h, read-out: EC50 CMS): 1 nM | IC50 (CHRF288-11 [10]): 2.9 nM | IC50 (ML-2): 1.6 nM | only tolerable dose [11]: 5 mg/kg | IC50 (CMS [12]): 6.3 nM | EC50 (U937 [13]; secondary HTS, 72 h, average of triplicate, read-out: EC50 U937): 1 nM | Median survival ([14]; mouse, in vivo, ip): 60 days | Median survival ([15]; 5 mg kg−1 q4d): 62 days | EC50 (M07e [16]): 1 nM | EC50 (CHRF288-11 [17]; secondary HTS, 72 h, average of triplicate, read-out: EC50 CHRF288-11): 1 nM

Nc1ccn([C@@H]2O[C@H](CO)[C@@H](O)[C@@H]2O)c(=O)n1 [Cytarabine, cytarabine]
Median survival ([1]; CHRF288-11-Luc+ model, low-dose 6.25 mg/kg once daily for 5 days for 3 weeks): 26 days | Median survival ([1]; CHRF288-11 xenograft, 50 mg kg−1 q4d, i.p.): 25 days | IC50 (MOLM-13 [2]): 31 nM | IC50 (THP-1): 8810 nM | Median survival [18]: 49 days | EC50 (MV4-11 [3]; [25]): 2600 nM | EC50 (ML2; [26]): 100 nM | IC50 (U937 [4]): 11 nM | EC50 (M07e [19]): > 10000 nM | EC50 (MOLM-13 [5]; secondary high-throughput screen, read-out: average effective concentration, MOLM-13): 300 nM | IC50 [6]: 54 nM | triphosphate elimination α half-life ([20]; biphasic): 7 to 20 min | triphosphate elimination β half-life ([20]; biphasic): 2 to 3 h | Median survival ([7]; 50 mg kg−1 q4d): 29 days | EC50 (CMK; secondary high-throughput screen, read-out: average effective concentration, CMK): 320 nM | IC50 (MV4-11 [8]): 1980 nM | EC50 (CMS [9]; secondary high-throughput screen, CMS, read-out: average effective concentration, CMS): 290 nM | IC50 (CHRF288-11 [10]): 606 nM | higher concentration of cytarabine giving nearly equivalent intracellular exposure to 1 µM gemcitabine (AML cell lines [21]; 10 µM): ~10 fold | uptake at 10 µM cytarabine compared to 1 µM cytarabine (AML cell lines [21]; 10 µM): 1.6–3.7 fold | uptake at 100 µM cytarabine compared to 1 µM cytarabine (AML cell lines [21]; 100 µM): 7–12 fold | Median survival ([22]; 50 mg kg−1 daily x 5 days): 63 days | Median survival ([22]; 100 mg kg−1 daily x 5 days): 80 days | IC50 (ML-2): 26 nM | IC50 (CMS [12]; Cell Titer Glo): 5370 nM | EC50 (U937 [13]; secondary high-throughput screen, U937, read-out: average effective concentration, U937): 290 nM | Median survival ([14]; Mll-PTD/wt:Flt3ITD/ITD primary transplants, 50 mg kg−1 q4d, i.p.): 50 days | Median survival ([15]; 50 mg kg−1 q4d): 56 days | EC50 (CHRF288-11 [17]; HTS, secondary high-throughput screen, CHRF288-11, read-out: average effective concentration, CHRF288-11): 1900 nM

Nc1ccn([C@@H]2O[C@H](COP(=O)(O)OP(=O)(O)OP(=O)(O)O)[C@@H](O)C2(F)F)c(=O)n1 [dFdCTP, gemcitabine triphosphate]
accumulation of dFdCTP compared to Ara-CTP (AML cell lines [23]; AML cell lines): 7.3–61.2 fold | share of the total intracellular accumulation (AML cell lines [23]; all cell lines evaluated): 58–81% | cellular elimination half-life (biphasic) ([20]; higher cellular concentrations): 15 to 24 h | accumulation of dFdCTP versus Ara-CTP [24]: 2.4–5.3 fold
